Results taken from ChEMBL document CHEMBL6115029, “Discovery of Daraxonrasib (RMC-6236), a Potent and Orally Bioavailable RAS(ON) Multi-selective, Noncovalent Tri-complex Inhibitor for the Treatment of Patients with Multiple RAS-Addicted Cancers” (J Med Chem, 2025).
In brackets after ≈: the same amount, converted by molar mass.

Columns and labels:
[1] = Inhibition of ERK1/2 phosphorylation in human ASPC1 cells harboring KRAS G12D mutant incubated for 4 hrs by AlphaLISA assay; format: cell-based; details: ASPC1, 4 h
[2] = Inhibition of ERK1/2 phosphorylation in human CAPAN-1 cells harboring KRAS G12V mutant incubated for 4 hrs by AlphaLISA assay; format: cell-based; details: CAPAN-1, 4 h
[3] = target: Peptidyl-prolyl cis-trans isomerase A (Homo sapiens, UniProt P62937); experiment: Binding affinity to Avi-tagged Cyclophilin A (unknown origin) assessed as dissociation constant by SPR analysis
Chain of Peptidyl-prolyl cis-trans isomerase A (P62937 whole entry): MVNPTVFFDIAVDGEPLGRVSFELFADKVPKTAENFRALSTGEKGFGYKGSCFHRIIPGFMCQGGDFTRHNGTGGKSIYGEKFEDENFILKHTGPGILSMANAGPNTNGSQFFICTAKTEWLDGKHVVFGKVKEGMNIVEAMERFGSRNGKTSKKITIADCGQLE

[4] = Efflux ratio of apparent permeability in human Caco-2 cells at 5 uM incubated for 2 hrs by LC-MS/MS analysis; format: ADME, cell-based
[5] = Oral bioavailability in female BALB/c mouse blood at 10 mg/kg measured after 24 hrs by LC-MS/MS analysis; format: ADME, organism-based
[6] = tested on: ASPC1; experiment: Cytotoxicity against human ASPC1 cells harboring KRAS G12D mutant cultured as 2D cells assessed as reduction in cell viability incubated for 120 hrs by CellTiter-Glo luminescence assay; format: functional, cell-based; details: ASPC1, 120 h
[7] = tested on: A-375; experiment: Cytotoxicity against human A-375 cells assessed as reduction in cell viability incubated for 120 hrs by CellTiter-Glo luminescence assay; format: functional, cell-based; details: A-375, 120 h
[8] = Inhibition of 6His-tagged KRAS G12V mutant(1 to 169 residues)/GST-tagged GMPPNP-bound BRAF RBD (155 to 229 reisudes)/Cyclophilin A (unknown origin) tri-complex protein-protein interaction incubated for 3 hrs by TR-FERT based disruption assay; set-up: species or system Homo sapiens
[9] = Apparent permeability across apical to basolateral side in human Caco-2 cells at 5 uM incubated for 2 hrs by LC-MS/MS analysis; format: ADME, cell-based
[10] = Clearance in female BALB/c mouse blood at 1 mg/kg, iv measured after 24 hrs by LC-MS/MS analysis; format: ADME, organism-based
[11] = tested on: NCI-H358; experiment: Cytotoxicity against human NCI-H358 cells harboring KRAS G12C mutant cultured as 2D cells assessed as reduction in cell viability incubated for 120 hrs by CellTiter-Glo luminescence assay; format: functional, cell-based; details: NCI-H358, 120 h
[12] = Inhibition of ERK1/2 phosphorylation in human NCI-H358 cells harboring KRAS G12C mutant incubated for 4 hrs by AlphaLISA assay; format: cell-based; details: NCI-H358, 4 h
[13] = Inhibition of 6His-tagged KRAS G12D mutant(1 to 169 residues)/GST-tagged GMPPNP-bound BRAF RBD (155 to 229 reisudes)/Cyclophilin A (unknown origin) tri-complex protein-protein interaction incubated for 3 hrs by TR-FERT based disruption assay; set-up: species or system Homo sapiens
[14] = tested on: CAPAN-1; experiment: Cytotoxicity against human CAPAN-1 cells harboring KRAS G12V mutant cultured as 2D cells assessed as reduction in cell viability incubated for 120 hrs by CellTiter-Glo luminescence assay; format: functional, cell-based; details: CAPAN-1, 120 h
[15] = Kinetic solubility of compound in PBS at pH 7.4 measured after 5 hrs by UV analysis; format: physicochemical; details: read-out: Kinetic_solubility
[16] = Clearance in female BALB/c mouse plasma at 1 mg/kg, iv measured after 24 hrs by LC-MS/MS analysis; format: ADME, organism-based
[17] = Inhibition of 6His-tagged wildtype KRAS (1 to 169 residues)/GST-tagged GMPPNP-bound BRAF RBD (155 to 229 reisudes)/Cyclophilin A (unknown origin) tri-complex protein-protein interaction incubated for 3 hrs by TR-FERT based disruption assay; set-up: species or system Homo sapiens
[18] = Oral bioavailability in female BALB/c mouse plasma at 10 mg/kg measured after 24 hrs by LC-MS/MS analysis; format: ADME, organism-based
[19] = Metabolic stability in mouse liver microsomes assessed as half-life at 2 uM measured upto 60 mins in presence of NADPH by LC-MS/MS analysis; format: ADME, Microsome
[20] = Inhibition of 6His-tagged KRAS G12C mutant(1 to 169 residues)/GST-tagged GMPPNP-bound BRAF RBD (155 to 229 reisudes)/Cyclophilin A (unknown origin) tri-complex protein-protein interaction incubated for 3 hrs by TR-FERT based disruption assay; set-up: species or system Homo sapiens
[21] = tested on: NCI-H1975; experiment: Cytotoxicity against human NCI-H1975 cells harboring wildtype KRAS cultured as 2D cells assessed as reduction in cell viability incubated for 120 hrs by CellTiter-Glo luminescence assay; format: functional, cell-based; details: NCI-H1975, 120 h
[22] = Binding affinity to Cyclophilin A/Avi-tagged KRAS G12D mutant (1 to 169 residues) (unknown origin) assessed as dissociation constant by SPR analysis; set-up: species or system Homo sapiens
[23] = Binding affinity to Cyclophilin A/Avi-tagged KRAS G12C mutant (1 to 169 residues) (unknown origin) assessed as dissociation constant by SPR analysis; set-up: species or system Homo sapiens
[24] = Binding affinity to Cyclophilin A/Avi-tagged KRAS G12V mutant (1 to 169 residues) (unknown origin) assessed as dissociation constant by SPR analysis; set-up: species or system Homo sapiens
[25] = Lipophilicity, logD of compound at pH 7.4 by Agilent 1290 II uPLC analysis; format: physicochemical; details: buffer
[26] = Half-life in female BALB/c mouse at 1 mg/kg, iv measured after 24 hrs by LC-MS/MS analysis; format: ADME, organism-based; details: in vivo
[27] = Clearance in female BALB/c mouse at 1 mg/kg, iv measured after 24 hrs by LC-MS/MS analysis; format: ADME, organism-based; details: in vivo
[28] = Oral bioavailability in female BALB/c mouse at 10 mg/kg measured after 24 hrs by LC-MS/MS analysis; format: ADME, organism-based; details: in vivo

Compound | EC50 [1] | EC50 [2] | Kd [3] | efflux ratio at 2 h, 5 µM [4] | bioavailability [5] | EC50 [6] | EC50 [7] | IC50 [8] | Papp A→B at 2 h, 5 µM [9] | clearance [10] | EC50 [11] | EC50 [12] | IC50 [13] | EC50 [14] | solubility kinetic at 5 h [15] | IC50 [17] | half-life at 2 µM [19] | IC50 [20] | EC50 [21] | logD [25] | also measured
CCn1c(-c2cc(N3CCN(C4COC4)CC3)cnc2[C@H](C)OC)c2c3cc(ccc31)-c1csc(n1)C[C@H](NC(=O)[C@H]1C[C@@H]1C)C(=O)N1CCC[C@H](N1)C(=O)OCC(C)(C)C2 | 0.0042 µM | 0.0007 µM | 0.077 µM | 12 | 49% | 0.0041 µM | > 10 µM | 0.055 µM | 0.6 ×10⁻⁶ cm/s | 6.67 mL/min/kg | 0.0008 µM | 0.0029 µM | 0.249 µM | 0.0018 µM | 56 µM (≈ 47.8 µg/mL) | 0.103 µM | > 2 h | 0.04 µM | 0.0009 µM | – | clearance [16]: 51.7 mL/min/kg; bioavailability [18]: 27%
CCn1c(-c2cccnc2[C@H](C)OC)c2c3cc(ccc31)-c1cccc(c1)C[C@H](NC(=O)[C@H](C(C)C)N(C)C(C)=O)C(=O)N1CCC[C@H](N1)C(=O)OCC(C)(C)C2 | – | – | 1.15 µM | – | – | 4.41 µM | – | 3.52 µM | – | – | 1.53 µM | – | 26.1 µM | 1.14 µM | – | – | – | 2.04 µM | > 10 µM | – | Kd [22]: 10.7 µM; Kd [23]: 2.82 µM; Kd [24]: 4.93 µM
CCn1c(-c2cc(N3CC4CC(C3)N4C)cnc2[C@H](C)OC)c2c3cc(ccc31)-c1csc(n1)C[C@H](NC(=O)[C@H]1C[C@@H]1C)C(=O)N1CCC[C@H](N1)C(=O)OCC(C)(C)C2 | 0.0044 µM | 0.0005 µM | 0.023 µM | 96 | 5.7% | 0.0053 µM | 2.98 µM | 0.071 µM | 0.2 ×10⁻⁶ cm/s | 16.7 mL/min/kg | 0.0017 µM | 0.0021 µM | 0.272 µM | 0.0021 µM | 130 µM (≈ 107 µg/mL) | 0.116 µM | > 2 h | 0.053 µM | – | 3.9 | –
CCn1c(-c2cc(N3CCN(C4CC4)CC3)cnc2[C@H](C)OC)c2c3cc(ccc31)-c1csc(n1)C[C@H](NC(=O)[C@H]1[C@@H]3COC[C@@H]31)C(=O)N1CCC[C@H](N1)C(=O)OCC(C)(C)C2 | 0.0041 µM | 0.0005 µM | 0.216 µM | 7 | 63% | 0.0049 µM | 8.37 µM | 0.043 µM | 0.9 ×10⁻⁶ cm/s | 6.67 mL/min/kg | 0.0008 µM | 0.0009 µM | 0.175 µM | 0.0021 µM | 20 µM (≈ 17.3 µg/mL) | 0.076 µM | 1 h | 0.031 µM | 0.0019 µM | 5.2 | clearance [16]: 6.67 mL/min/kg; bioavailability [18]: 88%
CCn1c(-c2cccnc2[C@H](C)OC)c2c3cc(ccc31)-c1csc(n1)C[C@H](NC(=O)[C@H]1CCO1)C(=O)N1CCC[C@H](N1)C(=O)OCC(C)(C)C2 | > 10 µM | 0.124 µM | 6.52 µM | 1.7 | – | 1.64 µM | > 10 µM | 0.334 µM | 3.1 ×10⁻⁶ cm/s | – | 0.429 µM | 0.952 µM | 2.31 µM | 0.615 µM | 5 µM (≈ 3.57 µg/mL) | 0.628 µM | 0.733 h | 0.224 µM | 0.402 µM | 4.3 | half-life [26]: 1.6 h; clearance [27]: 3.33 mL/min/kg; bioavailability [28]: 44%
CCn1c(-c2cccnc2[C@H](C)OC)c2c3cc(ccc31)-c1csc(n1)C[C@H](NC(=O)[C@H](C(C)C)N(C)C(C)=O)C(=O)N1CCC[C@H](N1)C(=O)OCC(C)(C)C2 | 0.857 µM | 0.032 µM | 0.313 µM | 13.6 | – | ≥ 0.715 µM | > 10 µM | 3.55 µM | 0.02 ×10⁻⁶ cm/s | – | 0.199 µM | 0.116 µM | ≥ 21.2 µM | 0.149 µM | 6 µM (≈ 4.72 µg/mL) | 4.92 µM | 0.1 h | 1.97 µM | 0.057 µM | – | half-life [26]: 0.6 h; Kd [22]: 5.05 µM; clearance [27]: 95 mL/min/kg; Kd [23]: 1.54 µM; bioavailability [28]: ≤ 0.4%; Kd [24]: 2.7 µM
CCn1c(-c2cc(N3CCN(CCOC)CC3)cnc2[C@H](C)OC)c2c3cc(ccc31)-c1csc(n1)C[C@H](NC(=O)[C@H]1C[C@@H]1C)C(=O)N1CCC[C@H](N1)C(=O)OCC(C)(C)C2 | 0.0077 µM | 0.0008 µM | 0.13 µM | 9 | 71% | 0.0061 µM | > 10 µM | 0.078 µM | 1 ×10⁻⁶ cm/s | 6.67 mL/min/kg | 0.0018 µM | 0.0034 µM | 0.385 µM | 0.0028 µM | 45 µM (≈ 38.5 µg/mL) | 0.152 µM | 1.72 h | 0.054 µM | 0.0094 µM | 4.7 | clearance [16]: 30 mL/min/kg; bioavailability [18]: 57%
